Key:
Vitis vinifera [1] = assay: Toxicity in Vitis vinifera cv. Pinot noir assessed as effect on gas exchanges at 1.2 to 30 mM measured 10 days post compound application; type: organism-based; conditions: in vivo, 240 h, 30000 µM
Vitis vinifera [2] = assay: Increase in […] CO2 level in Vitis vinifera cv. Pinot noir at 1.2 mM measured 7 days post compound application; type: ADME, organism-based; conditions: in vivo, 168 h, 1200 µM
Vitis vinifera [3] = assay: Increase in […] CO2 level in Vitis vinifera cv. Pinot noir at 30 mM measured 7 days post compound application; type: ADME, organism-based; conditions: in vivo, 168 h, 30000 µM
Vitis vinifera [4] = assay: Increase in […] CO2 level in Vitis vinifera cv. Pinot noir at 6 mM measured 7 days post compound application; type: ADME, organism-based; conditions: in vivo, 168 h, 6000 µM
[5] = Inhibition of photosynthesis in Vitis vinifera cv. Pinot noir assessed as reduction in net photosynthetic rate at 6 mM measured 7 days post compound application; type: organism-based; conditions: in vivo
[6] = Inhibition of photosynthesis in Vitis vinifera cv. Pinot noir assessed as reduction in net photosynthetic rate at 30 mM measured 7 days post compound application; type: organism-based; conditions: in vivo
Vitis vinifera [7] = assay: Effect on net photosynthetic rate in Vitis vinifera cv. Pinot noir at 1.2 to 30 mM measured 2 to 4 days post compound application; type: ADME, organism-based; conditions: in vivo, 30000 µM
Vitis vinifera [8] = assay: Effect on […] CO2 level in Vitis vinifera cv. Pinot noir at 1.2 to 30 mM measured 1 day post compound application; type: ADME, organism-based; conditions: in vivo, 24 h, 30000 µM
Vitis vinifera [9] = assay: Effect on stomatal conductance in Vitis vinifera cv. Pinot noir at 1.2 to 30 mM measured 1 day post compound application; type: ADME, organism-based; conditions: in vivo, 24 h, 30000 µM
Vitis vinifera [10] = assay: Inhibition of photosynthesis in Vitis vinifera cv. Pinot noir assessed as reduction in net photosynthetic rate at 30 mM measured 1 day post compound application; type: organism-based; conditions: in vivo, 24 h, 30000 µM
Vitis vinifera [11] = assay: Inhibition of photosynthesis in Vitis vinifera cv. Pinot noir assessed as reduction in net photosynthetic rate at 6 mM measured 1 day post compound application; type: organism-based; conditions: in vivo, 24 h, 6000 µM
[12] = Inhibition of photosynthesis in Vitis vinifera cv. Pinot noir assessed as reduction in net photosynthetic rate at 1.2 mM measured 1 day post compound application; type: organism-based; conditions: in vivo
Vitis vinifera [13] = assay: Inhibition of photosynthesis in Vitis vinifera cv. Pinot noir assessed as ratio of apparent quantum yield of photo system 2 to apparent quantum yield yield of CO2 fixation at 30 mM measured 7 days post compound application (reference value: 10 +/- 1.7 no unit); type: organism-based; conditions: in vivo, 168 h, 30000 µM
Vitis vinifera [14] = assay: Inhibition of photosynthesis in Vitis vinifera cv. Pinot noir assessed as in vivo maximum rate of rubisco carboxylation at 6 mM measured 7 days post compound application (reference value: 42.8 +/- 3.2 umol/m2/s); type: organism-based; conditions: 168 h, 6000 µM
Vitis vinifera [15] = assay: Inhibition of photosynthesis in Vitis vinifera cv. Pinot noir assessed as in vivo maximum rate of rubisco carboxylation at 1.2 mM measured 7 days post compound application (reference value: 42.8 +/- 3.2 umol/m2/s); type: organism-based; conditions: 168 h, 1200 µM
Vitis vinifera [16] = assay: Inhibition of photosynthesis in Vitis vinifera cv. Pinot noir assessed as intercellular CO2 concentration-saturated net CO2 assimilation rate at 30 mM measured 7 days post compound application (reference value: 11.3 +/- 0.8 umol/m2/s); type: organism-based; conditions: in vivo, 168 h, 30000 µM
Vitis vinifera [17] = assay: Inhibition of photosynthesis in Vitis vinifera cv. Pinot noir assessed as intercellular CO2 concentration-saturated net CO2 assimilation rate at 6 mM measured 7 days post compound application (reference value: 11.3 +/- 0.8 umol/m2/s); type: organism-based; conditions: in vivo, 168 h, 6000 µM
Vitis vinifera [18] = assay: Inhibition of photosynthesis in Vitis vinifera cv. Pinot noir assessed as intercellular CO2 concentration-saturated net CO2 assimilation rate at 1.2 mM measured 7 days post compound application (reference value: 11.3 +/- 0.8 umol/m2/s); type: organism-based; conditions: in vivo, 168 h, 1200 µM
Vitis vinifera [19] = assay: Inhibition of photosynthesis in Vitis vinifera cv. Pinot noir assessed as apparent quantum yield of CO2 fixation at 1.2 mM measured 7 days post compound application (reference value: 0.07 +/- 0.01 no unit) umol/m2/s); type: organism-based; conditions: in vivo, 168 h, 1200 µM
Vitis vinifera [20] = assay: Inhibition of photosynthesis in Vitis vinifera cv. Pinot noir assessed as mitochondrial respiration in the light at 1.2 mM measured 7 days post compound application (reference value: 3.2 +/- 0.5 umol/m2/s); type: organism-based; conditions: in vivo, 168 h, 1200 µM
Vitis vinifera [21] = assay: Inhibition of photosynthesis in Vitis vinifera cv. Pinot noir assessed as CO2 compensation point at 1.2 mM measured 7 days post compound application (reference value: 74.8 +/- 12.7 umol/mol); type: organism-based; conditions: in vivo, 168 h, 1200 µM
Vitis vinifera [22] = assay: Effect on total nonphotochemical quenching in Vitis vinifera cv. Pinot noir at 1.2 to 30 mM measured 7 days post compound application; type: ADME, organism-based; conditions: in vivo, 168 h, 30000 µM
Vitis vinifera [23] = assay: Effect on photochemical quenching in Vitis vinifera cv. Pinot noir at 1.2 to 30 mM measured 7 days post compound application; type: ADME, organism-based; conditions: in vivo, 168 h, 30000 µM
Vitis vinifera [24] = assay: Inhibition of photosynthesis in Vitis vinifera cv. Pinot noir assessed as ratio of apparent quantum yield of photo system 2 to apparent quantum yield yield of CO2 fixation at 6 mM measured 7 days post compound application (reference value: 10 +/- 1.7 no unit); type: organism-based; conditions: in vivo, 168 h, 6000 µM
Vitis vinifera [25] = assay: Inhibition of photosynthesis in Vitis vinifera cv. Pinot noir assessed as ratio of apparent quantum yield of photo system 2 to apparent quantum yield yield of CO2 fixation at 1.2 mM measured 7 days post compound application (reference value: 10 +/- 1.7 no unit); type: organism-based; conditions: in vivo, 168 h, 1200 µM
Vitis vinifera [26] = assay: Inhibition of photosynthesis in Vitis vinifera cv. Pinot noir assessed as PPFD-saturated net CO2 assimilation rate at 30 mM measured 7 days post compound application (reference value: 8.9 +/- 1.5 umol/m2/s); type: organism-based; conditions: in vivo, 168 h, 30000 µM
Vitis vinifera [27] = assay: Inhibition of photosynthesis in Vitis vinifera cv. Pinot noir assessed as PPFD-saturated net CO2 assimilation rate at 6 mM measured 7 days post compound application (reference value: 8.9 +/- 1.5 umol/m2/s); type: organism-based; conditions: in vivo, 168 h, 6000 µM

Structure (SMILES): N#Cc1c[nH]cc1-c1cccc2c1OC(F)(F)O2 [FLUDIOXONIL]
- Activity (Vitis vinifera [1]): Non-toxic
- Activity (Vitis vinifera [2]): 13%
- Activity (Vitis vinifera [3]): 20%
- Activity (Vitis vinifera [4]): 20%
- inhibition at 168 h, 6000 µM [5]: 65%
- inhibition at 168 h, 30000 µM [6]: 38%
- Activity (Vitis vinifera [7]): Non-toxic
- Activity (Vitis vinifera [8]): Non-toxic
- Activity (Vitis vinifera [9]): Non-toxic
- Activity (Vitis vinifera [10]): Toxic
- Activity (Vitis vinifera [11]): Toxic
- inhibition at 24 h, 1200 µM [12]: 30%
- Ratio (Vitis vinifera [13]): 19.2
- Activity (Vitis vinifera [14]): 44.1 micromol/m2/s
- Activity (Vitis vinifera [15]): 38 micromol/m2/s
- Activity (Vitis vinifera [16]): 12.2 micromol/m2/s
- Activity (Vitis vinifera [17]): 11.5 micromol/m2/s
- Activity (Vitis vinifera [18]): 11.3 micromol/m2/s
- Activity (Vitis vinifera [19]): 0.01
- Activity (Vitis vinifera [20]): 3.2 micromol/m2/s
- Activity (Vitis vinifera [21]): 84.9 umol/mol
- Activity (Vitis vinifera [22]): Non-toxic
- Activity (Vitis vinifera [23]): Non-toxic
- Ratio (Vitis vinifera [24]): 16.3
- Ratio (Vitis vinifera [25]): 17.4
- Activity (Vitis vinifera [26]): 9.4 micromol/m2/s
- Activity (Vitis vinifera [27]): 7.6 micromol/m2/s

Reference: ChEMBL document CHEMBL3044966, “Photosynthesis limitations of grapevine after treatment with the fungicide fludioxonil” (J Agric Food Chem, 2008)
